Experimental findings from patent US6414001B2, “Ether and amide compounds preparation thereof composition containing same and use thereof as antidiadetics” (Kotobuki Pharmaceutical Co. Ltd., priority 2000, dated 2002) are described below.

In one data set the test system is db/db mice. Put plainly: Hypoglycemic activity in mice. Format: in vivo. The following applies: for inhibition in vivo at 3 mg/kg: 3 mg/kg once a day for four consecutive days; for inhibition in vivo at 30 mg/kg: 30 mg/kg once a day for four consecutive days. How it is done: Hypoglycemic Activity in Mice
Test compounds were suspended in 0.5% Methyl cellulose solution and administered (p.o.) to db/db mice (obtained from Nihon Clea) at a range of 3-30 mg/kg once a day for four consecutive days. Troglitazone (300 mg/kg) was also administrated for control.

Where [1] appears, read: Mus musculus, po, suspended in 0.5% methyl cellulose.
Setting [2] is: Mus musculus, po, 10 mg/kg once a day for four consecutive days, suspended in 0.5% methyl cellulose.

Usually inhibition in vivo stands for the change of the read-out against control, counted positive when it falls. High values mean a strong effect, low ones a weak effect. The compound `Cc1oc(-c2cc(C(C)(C)C)c(OCC(=O)O)c(C(C)(C)C)c2)nc1CCOc1ccc(NS(=O)(=O)C(F)(F)F)cc1` [Compound 68] displayed an inhibition in vivo at 3 mg/kg in the data set on db/db mice (setting [1]) of 21.2%.
As usually defined, the melting point is the temperature, or range, at which the solid turns liquid. With `CCOc1cc(OCCc2nc(-c3ccccc3)oc2C)ccc1NS(=O)(=O)C(F)(F)F` [Compound 40], the melting point was in the range of 133 to 135 °C. For the same compound, the inhibition in vivo at 30 mg/kg in the data set with db/db mice (setting [1]) amounted to 53.4%.
In turn, `Cc1oc(-c2ccc(O)c(C(C)(C)C)c2)nc1CCOc1ccc(NS(=O)(=O)C(F)(F)F)cc1` [Compound 70] displayed an inhibition in vivo at 30 mg/kg in the data set on db/db mice (setting [1]) of 51%.
Regarding `CN(CCOc1ccc(NS(=O)(=O)C(F)(F)F)cc1)c1ccccn1` [Compound 11, 4-[2-(N-Methyl-N-2-pyridyl)aminoethoxy]benzene trifluoromethanesulfonamide], the inhibition in vivo at 10 mg/kg in the data set with db/db mice (setting [2]) came to 15.4%.
The same measure, in the same setting: in the case of `COc1ccc(-c2nc(CCOc3ccc(NS(=O)(=O)C(F)(F)F)cc3)c(C)o2)cc1` [Compound 18] it was 34.7%.
In the case of `CCc1ccc(CCOc2ccc(NS(=O)(=O)C(F)(F)F)cc2)nc1` [Compound 10, 4-[2-(5-Ethylpyridine-2-yl)ethoxy]benzene trifluoromethylsulfonamide], the melting point lay in the range of 76 to 78 °C. Further, 10 mg/kg produced 32.4% inhibition in vivo in the data set on db/db mice (setting [2]).
For `Cc1oc(-c2ccccc2)nc1CCOc1ccc(NC(=O)C(=O)O)cc1` [Compound 8, 2-[4-(2-(5-Methyl-2-phenyl-1,3-oxazole-4-yl)ethoxy)phenyl]amino-2-oxo-acetic acid], the melting point fell in the range of 196 to 198 °C. Also, the inhibition in vivo at 10 mg/kg in the data set on db/db mice (setting [2]) stood at 26%.
As for “4-[2-(5-Methyl-2-phenyl-1,3-oxazole-4-yl)ethoxy]benzene trifluoromethyl sulfonamide [Compound 2]”, the “Hypoglycemic activity (%)” value with db/db mice (p.o., 10 mg/kg once a day for four consecutive days, suspended in 0.5% methyl cellulose) came out at 49.0%.
Take `Cc1oc(-c2ccc(F)cc2)nc1CCOc1ccc(NS(=O)(=O)C(F)(F)F)cc1` [Compound 59]: 3 mg/kg produced 18.4% inhibition in vivo in the data set on db/db mice (setting [1]).
On to `Cc1oc(-c2ccccc2)nc1CCOc1ccc(CNS(=O)(=O)C(F)(F)F)cc1` [Compound 9, 2-[4-(2-(5-Methyl-2-phenyl-1,3-oxazole-4-yl)ethoxy)benzyl]trifluoromethylsulfonamide], for which the melting point lay in the range of 113 to 115 °C. In the data set with db/db mice (setting [2]), the inhibition in vivo at 10 mg/kg was determined as 24%.
Regarding `Cc1oc(-c2ccccc2)nc1CC(=O)Nc1ccc(NS(=O)(=O)C(F)(F)F)cc1` [Compound 48], the melting point was in the range of 147 to 149 °C. The inhibition in vivo at 30 mg/kg with db/db mice (setting [1]) is 65.4%.
In turn, `CCOc1cc(OCCc2nc(-c3ccccc3)oc2C)ccc1C(=O)O` [Compound 31, 2-Ethoxy-4-[2-(5-methyl-2-phenyl-1,3-oxazole-4-yl)ethoxy]benzoic acid] showed an inhibition in vivo at 30 mg/kg in the data set with db/db mice (setting [1]) of 19%.
`Cc1oc(-c2ccc(Cl)cc2)nc1CCOc1ccc(NS(=O)(=O)C(F)(F)F)cc1` [Compound 58] came in with an inhibition in vivo at 3 mg/kg in the data set on db/db mice (setting [1]) of 43.4%.
With `COC(=O)c1ccc(OCCc2nc(-c3ccccc3)oc2C)cc1O` [Compound 25, 2-Hydroxy-4-[2-(5-methyl-2-phenyl-1,3-oxazole-4-yl)ethoxy]benzoic acid methyl ester], the melting point lay in the range of 133 to 134 °C.
The compound `Cc1oc(-c2ccc(OCC(=O)O)cc2)nc1CCOc1ccc(NS(=O)(=O)C(F)(F)F)cc1` [Compound 67] gave a melting point of 167 to 168 °C. In the data set on db/db mice (setting [1]), this compound showed an inhibition in vivo at 3 mg/kg of 33.1%.
Regarding `Cc1c(C)c2c(c(C)c1O)CCC(C)(COc1ccc(CC3SC(=O)NC3=O)cc1)O2` (stereo not shown) [Troglitazone, reference compound], the inhibition in vivo at 300 mg/kg with db/db mice (Mus musculus, po, 300 mg/kg, control drug) stood at 34%.
As for `Cc1oc(-c2cc(C(C)(C)C)c(O)c(C(C)(C)C)c2)nc1CCOc1ccc(NS(=O)(=O)C(F)(F)F)cc1` [Compound 19], in the data set on db/db mice (setting [2]), the inhibition in vivo at 10 mg/kg came to 12.8%.
In the data set on db/db mice (setting [2]), `Cc1oc(-c2ccccc2)nc1CCOc1ccc(NS(=O)(=O)C(F)(F)F)c(O)c1` [Compound 42] yielded an inhibition in vivo at 10 mg/kg of 29.6%.
`Cc1oc(-c2ccccc2)nc1CC(=O)Nc1ccc(C(=O)O)c(O)c1` [Compound 52] showed an inhibition in vivo at 30 mg/kg in the data set on db/db mice (setting [1]) of 10.5%.
